Patent US7566718B2, “Amine-linked pyridyl and phenyl substituted piperazine-piperidines with CXCR3 antagonist activity” (Schering Corporation, priority 2005, dated 2009)

Target: T1, human CXCR3 (N-delta 4) (Homo sapiens, UniProt P49682)
T1 construct: CD8 leader (N); Flag tag; expressed in transfected cells; membrane preparation
T1 sequence (P49682 5-368 limits assumed): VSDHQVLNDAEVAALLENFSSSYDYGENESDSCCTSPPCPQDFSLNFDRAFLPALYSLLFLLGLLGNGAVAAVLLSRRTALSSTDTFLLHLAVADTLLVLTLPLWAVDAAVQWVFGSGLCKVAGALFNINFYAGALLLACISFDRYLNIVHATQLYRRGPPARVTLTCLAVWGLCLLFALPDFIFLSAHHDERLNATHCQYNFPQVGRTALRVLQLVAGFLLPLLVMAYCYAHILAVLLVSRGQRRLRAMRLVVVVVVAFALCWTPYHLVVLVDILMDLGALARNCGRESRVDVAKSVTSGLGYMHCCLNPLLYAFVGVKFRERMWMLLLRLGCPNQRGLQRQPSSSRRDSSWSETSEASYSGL
Assay: Human CXCR3 (N-delta 4) scintillation proximity assay (SPA), [125I] IP-10 binding to Ba/F3-hCXCR3 membranes
Settings: IC50 rating; [125I] IP-10 displacement, human CXCR3; read-out: IC50
Excerpt: The inventive compounds can readily be evaluated to determine activity at the CXCR3 receptors by known methods, such as, for example, development of a human CXCR3 (N-delta 4) Binding Assay.
The DNA encoding human CXCR3 was cloned by PCR using human genomic DNA (Promega, Madison, Wis.) as a template. The PCR primers were designed based on the published sequence of human orphan receptor GPR9 (1) with incorporated restriction sites, a Kozak consensus sequence, CD8 leader and Flag tag. The PCR product was subcloned into the mammalian expression vector pME18Sneo, a derivative of the SR-alpha expression vector (designated as pME18Sneo-hCXCR3 (N-delta 4).
IL-3-dependent mouse pro-B cells Ba/F3 were transfected by electroporation in 0.4 ml Dulbecco's PBS containing 4×10^6 cells with 20 μg of pME18Sneo-hCXCR3 (N-delta 4) plasmid DNA. Cells were pulsed at 400 Volts, 100 OHMs, 960 μFd. The transfected cells were under selection with 1 mg/ml G418 (Life Technologies, Gaithersburg, Md.). G418-resistant Ba/F3 clones were screened for CXCR3 expression by specific binding of [^125I] IP-10 (NEN Life Science Products, Boston, Mass.).
Ba/F3 cells expressing human CXCR3 (N-delta 4) were pelleted and resuspended in the lysis buffer containing 10 mM HEPES, pH 7.5 and Complete® protease inhibitors (1 tablet per 100 ml) (Boehringer Mannheim, Indianapolis, Ind.) at a cell density of 20×10^6 cells per ml. After 5 minute incubation on ice, cells were transferred to 4639 cell disruption bomb (Parr Instrument, Moline, Ill.) and applied with 1,500 psi of nitrogen for 30 minutes on ice. Large cellular debris was removed by centrifugation at 1,000×g. Cell membrane in the supernatant was sedimented at 100,000×g. The membrane was resuspended in the lysis buffer supplemented with 10% sucrose and stored at −80° C. Total protein concentration of the membrane was determined by BCA method from Pierce (Rockford, Ill.).
Human CXCR3 (N-Delta 4) Scintillation Proximity Assay (SPA):
For each assay point, 2 μg of membrane was preincubated for 1 hr with 300 μg wheat germ agglutinin (WGA) coated SPA beads (Amersham, Arlington Heights, Ill.) in the binding buffer (50 mM HEPES, 1 mM CaCl2, 5 mM MgCl2, 125 mM NaCl, 0.002% NaN3, 1.0% BSA) at room temperature. The beads were spun down, washed once, resuspended in the binding buffer and transferred to a 96-well Isoplate (Wallac, Gaithersburg, Md.). 25 pM of [^125I] IP-10 with tested compounds in a series of titration were added to start the reaction. After 3 hr reaction at room temperature, the amount of [^125I] IP-10 bound to the SPA beads was determined with a Wallac 1450 Microbeta counter.

| IC50 [nM] | Compound |
| --- | --- |
| < 25 | CC[C@H]1CN(c2ncc(NC3=NS(=O)(=O)N=C3NC(C)C)cc2Cl)CCN1C1CCN(Cc2ccc(Cl)cc2F)CC1 [Compound 243] |
| > 100 | C[C@@H]1CN(c2ncc(Nc3c(NCC(F)(F)F)c(=O)c3=O)cc2Cl)[C@@H](C)CN1C1CCN(Cc2cccc(Br)c2)CC1 [Compound 136] |
| > 100 | C[C@@H]1CN(c2ncc(Nc3c(NCC(F)(F)F)c(=O)c3=O)cc2Cl)[C@@H](C)CN1C1CCN(Cc2csc3ccccc23)CC1 [Compound 156] |
| < 25 | CC[C@H]1CN(c2ncc(NC3=NS(=O)(=O)N=C3NCC3CC3)cc2Cl)CCN1C1CCN(Cc2ccc(Cl)cc2F)CC1 [Compound 246] |
| > 100 | CC[C@H]1CN(c2ncc(NS(C)(=O)=O)cc2Cl)CCN1C1CCN(Cc2ccc(O)cc2)CC1 [Compound 67] |
| < 25 | C[C@@H]1CN(C2CCN(Cc3ccc(Cl)cc3F)CC2)[C@@H](C)CN1c1ncc(Nc2c(NC3CC3)c(=O)c2=O)cc1Cl [Compound 90] |
| 25 to 100 | CC[C@H]1CN(c2ncc(NC3=NS(=O)(=O)N=C3NCCO)cc2Cl)CCN1C1CCN(Cc2ccc(F)c(F)c2)CC1 [Compound 257] |
| > 100 | COC1CCCC(CN2CCC(N3C[C@H](C)N(c4ncc(Nc5c(NCC(F)(F)F)c(=O)c5=O)cc4Cl)C[C@H]3C)CC2)O1 (stereo partly drawn) [Compound 151] |
| > 100 | CC[C@H]1CN(c2ncc(Nc3c(NCC(=O)O)c(=O)c3=O)cc2Cl)CCN1C1CCN([C@H](CO)c2ccc(Cl)cc2)CC1 [Compound 129] |
| < 25 | CC[C@H]1CN(c2ncc(NC(=O)C3CC3)cc2Cl)CCN1C1CCN(Cc2ccc(Cl)cc2F)CC1 [Compound 180] |
| > 100 | C[C@@H]1CN(c2ncc(Nc3c(NCC(F)(F)F)c(=O)c3=O)cc2Cl)[C@@H](C)CN1C1CCN(Cc2cccc(C#N)c2)CC1 [Compound 143] |
| > 100 | C[C@@H]1CN(c2ncc(Nc3c(NCC(F)(F)F)c(=O)c3=O)cc2Cl)[C@@H](C)CN1C1CCN(Cc2ccc(C#N)cc2)CC1 [Compound 114] |
| < 25 | CC[C@H]1CN(c2ncc(NS(C)(=O)=O)cc2Cl)CCN1C1CCN(C(C(N)=O)c2ccc(Cl)cc2)CC1 (stereo partly drawn) [Compound 12] |
| < 25 | CC[C@H]1CN(c2ncc(NC3=NS(=O)(=O)N=C3NC3CC3)cc2Cl)CCN1C1CCN(Cc2ccc(OC(F)(F)F)cc2)CC1 [Compound 234] |
| > 100 | CC[C@H]1CN(c2ncc(NC3=NS(=O)(=O)N=C3N)cc2Cl)CCN1C1CCN(Cc2ccc(Cl)cc2-c2ncon2)CC1 [Compound 265] |
| 25 to 100 | CC[C@H]1CN(c2ncc(NCCCC(F)(F)F)cc2Cl)CCN1C1CCN(Cc2ccc(Cl)cc2)CC1 [Compound 204] |
| < 25 | CC[C@H]1CN(c2ncc(NS(C)(=O)=O)cc2Cl)CCN1C1CCN(Cc2ccc(C)cc2C)CC1 [Compound 20] |
| < 25 | CC[C@H]1CN(c2ncc(NC3=NS(=O)(=O)N=C3NC3CC3)cc2Cl)CCN1C1CCN(Cc2ccc(C#N)cc2)CC1 [Compound 248] |
| < 25 | CC[C@H]1CN(c2ncc(NC3=NS(=O)(=O)N=C3NCC(F)(F)F)cc2Cl)CCN1C1CCN(Cc2ccc(Cl)cc2F)CC1 [Compound 252] |
| > 100 | CC[C@H]1CN(c2ncc(NS(C)(=O)=O)cc2Cl)CCN1C1CCN(C(=O)c2ccc(Cl)cc2)CC1 [Compound 51] |
| 25 to 100 | CC[C@H]1CN(c2ncc(NS(C)(=O)=O)cc2Cl)CCN1C1CCN(Cc2ccc(Cl)s2)CC1 [Compound 26] |
| > 100 | C[C@H]1CN(c2ncc(N)cc2Cl)CCN1C1CCN(Cc2ccc(Cl)cc2F)CC1 [Compound 224] |
| > 100 | C[C@@H]1CN(C2CCN(Cc3ccc(Cl)cc3F)CC2)[C@@H](C)CN1c1ncc([N+](=O)[O-])cc1Cl [Compound 217] |
| 25 to 100 | CC[C@H]1CN(c2ncc(Nc3c(NCC(=O)OC(C)(C)C)c(=O)c3=O)cc2Cl)CCN1C1CCN([C@H](CO)c2ccc(Cl)cc2)CC1 [Compound 110] |

| IC50 [nM] | Compound |
| --- | --- |
| > 100 | CCCCNC1=NS(=O)(=O)N=C1Nc1cnc(N2CCN(C3CCN(Cc4ccc(Cl)cc4C#N)CC3)[C@@H](CC)C2)c(Cl)c1 [Compound 273] |
| 25 to 100 | CC[C@H]1CN(c2ncc(N(C)c3c(NC4CC4)c(=O)c3=O)cc2Cl)CCN1C1CCN(C(CO)c2ccc(Cl)cc2)CC1 (stereo partly drawn) [Compound 108] |
| > 100 | C[C@H]1CN(c2ncc(NS(C)(=O)=O)cc2Cl)CCN1C1CCN(Cc2ccc(C(F)(F)F)cc2F)CC1 [Compound 64] |
| > 100 | C[C@@H]1CN(c2ncc(Nc3c(NCC(F)(F)F)c(=O)c3=O)cc2Cl)[C@@H](C)CN1C1CCN(Cc2cccc(Cl)c2Cl)CC1 [Compound 158] |
| > 100 | CC[C@H]1CN(c2ncc([N+](=O)[O-])cc2Cl)CCN1C1CCN(Cc2ccc(Cl)cc2-c2nnc[nH]2)CC1 [Compound 215] |
| > 100 | CC[C@H]1CN(c2ncc(NS(=O)(=O)c3ccc(Cl)cc3)cc2Cl)CCN1C1CCN(Cc2ccc(Cl)cc2F)CC1 [Compound 46] |
| < 25 | CC[C@H]1CN(c2ncc(Nc3c(C(C)C)c(=O)c3=O)cc2Cl)CCN1C1CCN(Cc2ccc(Cl)cc2F)CC1 [Compound 84] |
| > 100 | C[C@H]1CN(c2ncc(NS(C)(=O)=O)cc2Cl)CCN1C1CCN(C(=O)c2ccc(Cl)cc2)CC1 [Compound 66] |
| 25 to 100 | CC[C@H]1CN(c2ncc(Nc3c(N[C@@H](c4ccc(C)o4)C(C)(C)C)c(=O)c3=O)cc2Cl)CCN1C1CCN([C@H](CO)c2ccc(Cl)cc2)CC1 [Compound 109] |
| > 100 | Cc1cc(Nc2c(NCC(F)(F)F)c(=O)c2=O)cnc1N1C[C@@H](C)N(C2CCN(C(=O)c3ccc(C#N)cc3)CC2)C[C@@H]1C [Compound 131] |
| < 25 | CC[C@H]1CN(c2ncc(NS(C)(=O)=O)cc2Cl)CCN1C1CCN(Cc2ccc(Cl)cc2N)CC1 [Compound 9] |
| 25 to 100 | CC[C@H]1CN(c2ncc(NC3=NS(=O)(=O)N=C3N)cc2Cl)CCN1C1CCN(Cc2ccc(OC(F)(F)F)cc2)CC1 [Compound 262] |
| > 100 | Cc1cc(Nc2c(NCC(F)(F)F)c(=O)c2=O)cnc1N1C[C@@H](C)N(C2CCN(C(=O)C3Cc4ccccc4C3)CC2)C[C@@H]1C [Compound 166] |
| < 25 | CC[C@H]1CN(c2ncc(Nc3c(NC4CCC4)c(=O)c3=O)cc2Cl)CCN1C1CCN(Cc2ccc(OC(F)(F)F)cc2)CC1 [Compound 83] |
| < 25 | CC[C@H]1CN(c2ncc(NC(=O)NC)cc2Cl)CCN1C1CCN(Cc2ccc(Cl)cc2F)CC1 [Compound 182] |
| > 100 | C[C@@H]1CN(c2ncc(Nc3c(NCC(F)(F)F)c(=O)c3=O)cc2Cl)[C@@H](C)CN1C1CCN(Cc2cccc3c2OCO3)CC1 [Compound 119] |
| < 25 | CC[C@H]1CN(c2ncc(NS(=O)(=O)CC)cc2Cl)CCN1C1CCN(C(N)c2ccc(Cl)cc2F)CC1 (stereo partly drawn) [Compound 15] |
| 25 to 100 | CC[C@H]1CN(c2ncc(NS(C)(=O)=O)cc2Cl)CCN1C1CCN(C(=O)c2ccc(Cl)nc2N)CC1 [Compound 31] |
| > 100 | CC[C@H]1CN(c2ncc(NC3=NS(=O)(=O)N=C3NCC(=O)O)cc2Cl)CCN1C1CCN(Cc2ccc(Cl)cc2F)CC1 [Compound 280] |
| 25 to 100 | CC[C@H]1CN(c2ncc(NC3=NS(=O)(=O)N=C3NC3CC3)cc2Cl)CCN1C1CCN(Cc2ccc(Cl)cc2C#N)CC1 [Compound 260] |
| < 25 | C[C@@H]1CN(c2ncc(Nc3c(NCC(F)(F)F)c(=O)c3=O)cc2Cl)[C@@H](C)CN1C1CCN(Cc2ccc(Cl)cc2)CC1 [Compound 98] |
| < 25 | CC[C@H]1CN(c2ncc(NS(N)(=O)=O)cc2Cl)CCN1C1CCN(Cc2ccc(Cl)cc2F)CC1 [Compound 2] |
| 25 to 100 | CC[C@H]1CN(c2ncc(N/C(N)=N/C#N)cc2Cl)CCN1C1CCN(Cc2ccc(Cl)cc2F)CC1 [Compound 208] |
| < 25 | CCNC(=O)Nc1cnc(N2CCN(C3CCN(Cc4ccc(Cl)cc4F)CC3)[C@@H](CC)C2)c(Cl)c1 [Compound 183] |
